Assay results published in article PMC12067350, “Discovery of Thieno[3,2‑b]pyridine-5-carboxamide and 2,3-Difluorobenzamide Negative Allosteric Modulators of Metabotropic Glutamate Receptor Subtype 5” (ACS Medicinal Chemistry Letters, 2025).

Experiments:
[1] = Rat IV/PO pharmacokinetics; format: in vivo, Sprague-Dawley rat; conditions: plasma, IV 1 mg/kg; for MRT / clearance / half-life / Vd: male Sprague-Dawley rats (n = 2); for clearance: read-out: CLp; for half-life: read-out: Elim. t 1/2 (converted); for Vd: read-out: V ss
Protocol: (1700 rcf, 5 minutes, 4 °C) to obtain plasma sample. […]
All brain and plasma samples were stored at -80 °C until analysis by LC-MS/MS.
Male Sprague-Dawley rats were used for discrete pharmacokinetic studies. Compounds in ethanol:
PEG400: saline (1:4:5 v/v/v) were administered intra-venously in two rats at 1 mg/kg (IV PK). Two rats were also gavaged at 10 mg/kg with compounds in 10% Tween 80 in water (PO PK). Blood samples were collected from all […] at […] different time points post-dose (0.25, 0.50, 1.0, 2.0, 4.0, 7.0 and 24 hr) and plasma was prepared as described above. The concentration of compounds in plasma was quantified by LC/MS/MS as described below.
The IV PK experiment was used to determine clearance, Volume of distribution and half-life. The PO experiments were used to determine exposure and oral bioavailability. PK parameters were calculated using Phoenix WinNonlin software (version 8.1).
Samples preparation for bioanalysis
Plasma samples from the in-life phase of the study were thawed at ambient temperature (benchtop), and then aliquots (20 µL per sample) were transferred to a 96-shallow-well (V-bottom) plate. Matrix-matched quality control (QC) samples and standard curves of VU6031545 and VU6024945 (1 mg/mL DMSO stock solution) were prepared in blank rat plasma (K2EDTA-treated) or blank brain homogenate via serial dilution and transferred (20 µL each) to the plate along with multiple blank plasma and brain homogenate samples. Acetonitrile (120 µL) containing IS (10 nM carbamazepine) was added to each well of the plate to precipitate protein. The plate was then centrifuged (4000 rcf, 5 minutes, ambient temperature), and resulting supernatants (60 µL each) were transferred to a new 96-shallow-well (V-bottom) plate containing an equal volume (60 µL per well) of water (Milli-Q purified). The plate was then sealed in preparation for LC-MS/MS analysis. […]

CYP1A2 = target: T1, CYP1A2 (Homo sapiens, UniProt P05177); experiment: Cytochrome P450 inhibition using human liver microsomes, CYP1A2; format: in vitro ADME; conditions: read-out: CYP 450 IC50, 1A2
T1 construct: from tissue; host or cells: human liver microsomes
T1 sequence (P05177 1-516): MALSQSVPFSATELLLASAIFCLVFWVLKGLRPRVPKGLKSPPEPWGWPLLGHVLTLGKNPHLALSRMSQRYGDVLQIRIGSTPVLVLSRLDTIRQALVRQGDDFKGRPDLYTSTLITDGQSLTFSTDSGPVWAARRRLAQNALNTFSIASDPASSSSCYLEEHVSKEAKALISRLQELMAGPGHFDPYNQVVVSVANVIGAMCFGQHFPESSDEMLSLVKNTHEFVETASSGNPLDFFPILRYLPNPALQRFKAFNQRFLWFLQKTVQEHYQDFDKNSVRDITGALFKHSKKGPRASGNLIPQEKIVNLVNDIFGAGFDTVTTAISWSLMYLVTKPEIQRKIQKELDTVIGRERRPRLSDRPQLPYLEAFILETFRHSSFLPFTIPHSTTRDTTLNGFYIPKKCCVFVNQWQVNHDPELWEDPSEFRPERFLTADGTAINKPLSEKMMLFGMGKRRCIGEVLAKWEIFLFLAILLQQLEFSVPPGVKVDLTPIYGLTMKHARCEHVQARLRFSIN
Protocol: (§1) Cytochrome P450 inhibition using Liver Microsomes.
(§2) The ability of compounds to inhibit cytochrome P450s (CYPs) was tested using human liver microsomes and a cocktail of substrates specific for CYP1A2, 2C9, 2D6 and 3A4. Compounds were incubated at 37C in presence of human liver microsomes (0.1 mg/ml) at 30, 10, 3, 1, 0.3 and 0.1 µM. A cocktail of substrate was also added for each CYP tested: phenacetin (10 µM, CYP1A2), diclofenac (5 µM, CYP2C9), dextromethorphan (5 µM, CYP2D6) and midazolam (2 µM, CYP3A4). HLM were also incubated with the control inhibitor miconazole at 3, 1, 0.3, 0.1, 0.03 and 0.01 µM. […]
(§3) The concentrations of CYP-specific metabolites generated at the end of the reaction were quantified by mass spectrometry using standard curves for each metabolite: acetaminophen (CYP1A2), 4-hydroxydiclofenac (CYP2C9), dextrophan (CYP2D6) and 1-hydroxymidazolam (CYP3A4). A concentration response curve for each metabolite was generated and IC50s were calculated using Prism. The LC-MS/MS transitions for metabolite quantifications are as follows. […]
(§4) Prepared samples were injected (10 µL each) onto an AB Sciex Triple Quad 4500 mass spectrometer system with an Agilent 1260 Infinity II pump and autosampler. […] Quantitation of compounds was performed via AB Sciex Multiquant software using the raw analyte:IS peak area ratios. […]

CYP2D6 = target: T2, CYP2D6 (Homo sapiens, UniProt P10635); experiment: Cytochrome P450 inhibition using human liver microsomes, CYP2D6; format: in vitro ADME; conditions: read-out: CYP 450 IC50, 2D6
T2 construct: from tissue; host or cells: human liver microsomes
T2 sequence (P10635 whole entry): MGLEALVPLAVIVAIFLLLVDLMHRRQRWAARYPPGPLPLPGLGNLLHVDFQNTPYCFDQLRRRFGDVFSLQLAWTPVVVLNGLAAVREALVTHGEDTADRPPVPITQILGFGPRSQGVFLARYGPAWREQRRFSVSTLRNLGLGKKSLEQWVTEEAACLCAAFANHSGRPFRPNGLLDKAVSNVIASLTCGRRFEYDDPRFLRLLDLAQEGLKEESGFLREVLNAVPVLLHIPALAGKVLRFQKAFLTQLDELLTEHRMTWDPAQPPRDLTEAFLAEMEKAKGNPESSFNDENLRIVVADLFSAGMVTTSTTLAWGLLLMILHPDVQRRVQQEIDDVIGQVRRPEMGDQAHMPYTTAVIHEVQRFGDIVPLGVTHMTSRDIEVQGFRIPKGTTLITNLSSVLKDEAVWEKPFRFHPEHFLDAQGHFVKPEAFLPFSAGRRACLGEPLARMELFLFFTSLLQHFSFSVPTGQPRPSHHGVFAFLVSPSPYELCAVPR
Protocol: as §1, §2, §3, §4

[2] = male Sprague-Dawley rats, PO 10 mg/kg, read-out: %F (oral bioavailability)

MRT [1]	clearance [1]	half-life [1]	Vd [1]	bioavailability [1, 2]	IC50 (CYP1A2)	IC50 (CYP2D6)	bioavailability at 24 h [1, 2]	Structure (SMILES)
2.45 h	49.3 mL/min/kg	3.42 h	6.67 L/kg	> 100%	1.2 µM	> 30 µM		Cc1csc(NC(=O)c2cc(O[C@@H]3CCOC3)c3sccc3n2)n1 [19aA]
1.44 h	31.3 mL/min/kg	1.78 h	2.89 L/kg	17%	1.3 µM	> 30 µM	16.6%	Cc1csc(NC(=O)c2cc(O[C@@H]3CCOC3)cc(F)c2F)n1 [27cA]
